USRE39707E1, “Camptothecin derivatives” (Catholic Healthcare West, priority 2001, dated 2007)
Where two headings read alike, the source gives them in different places.

Legend:
HCT116 = assay: Cell colony formation assay, HCT116 cells; type: cell-based, human; details: 72 hours drug exposure
Protocol: This example provides directions for growing cells and testing compounds of the invention for their effect on the growth of the cells. All cells were purchased from DCIDC Tumor Repository, NCI, NIH.
The cells were incubated in a CO2 incubator at 37° C. for 5 hours for attachment to the bottom of Petri dishes. Drugs were made fresh in medium at ten times the final concentration, and then 0.3 ml of this stock solution was added to the 2.7 ml of medium in the dish. The cells were then incubated with drugs for 72 hours at 37° C. At the end of the incubation the drug-containing media were decanted, the dishes were rinsed with 4 ml of Hank's Balance Salt Solution (HBSS), 5 ml of fresh medium was added, and the dishes were returned to the incubator for colony formation. The cell colonies were counted using colony counter after incubation for 7 days for HCT116 cells and PC-3 cells and 8 days for VM46 cells, respectively.

C3H/HeJ mice = test system: C3H/HeJ mice
Protocol: This example provides directions for performing in vivo toxicity tests of the compounds of the invention on C3H/HeJ mice.
Acute toxicities of the compounds of this invention are evaluated on C3H/HeJ mice (body weight 18-22 g). The MTD40 (maximum tolerated dose at day 40) values were determined by the standard procedure described by Gad and Chengelis (see, for example, “Acute Toxicology Testing,” 2nd Ed., Shayne O. Gad and Christopher P. Chengelis, pp. 186-195 (Academic Press)). In the consecutive type studies, 2 mice were dosed at low and moderate doses of 40 and 100 mg/kg. If no severe and irreversible toxicity (euthanasia is required) occurs at these doses, a new pair of animals was initiated at 180 mg/kg, which is 1.8 times higher than 100 mg/kg. Sequential dosages (about 3 doses on 3 pairs of animals, i.e. 2 mice for each drug dose) were increased by a factor of 1.8 until severe and irreversible toxicity (euthanasia is required) occurred. Then another pair of animals was initiated at the highest nonlethal dosage, and successive dosages were increased by a factor of 1.15. The result of this exercise was two dosages, one apparently nonlethal and the other lethal if severe and irreversible toxicity occurs and euthanasia is required, separated by a factor of 1.15. Six mice were dosed at each dosage. If no severe and irreversible toxicity occurred at the lower dosage and at least one with severe and irreversible toxicity occurred at the higher dose, then the lower dose was considered to be the MTD. The compounds of this invention were administered to C3H/HeJ mice by intraperitoneal injection. Drug toxicity was evaluated on mice checked daily for 45 days.

[1] = maximum tolerated dose at day 40, C3H/HeJ mice

Structure (SMILES) | In Vitro Efficacy: Survival (%) of HCT116 (HCT116; 10 nM) | In Vitro Efficacy: Survival (%) of HCT116 (HCT116; 100 nM) | In Vivo Toxicity MTD40 (ip, mg/kg) in C3H/Hej Mice (C3H/HeJ mice; [1]) | In Vivo Toxicity MTD40 (ip, mg/kg) in C3H/Hej Mice (C3H/HeJ mice; mouse, in vivo) | In Vitro Efficacy: Survival (%) of HCT116 (HCT116; 1 nM)
CCc1c2c(nc3ccc(OC(=O)N4CCC(N5CCCCC5)CC4)cc13)-c1cc3c(c(=O)n1C2)COC(=O)[C@]3(O)CC [CPT 11, 7-ethyl-10[4-(1-piperidino)-1-piperidino]carbonyloxy CPT, reference compound] | 100% | 90.52% | – | – | –
CCC1(OC(=O)COc2ccc(OC)cc2)C(=O)OCc2c1cc1n(c2=O)Cc2cc3ccccc3nc2-1 (stereo not drawn) [Example 000314, Camptothecin-20-O-ester of 4-methoxyphenoxyacetic acid] | – | 0% | >150 mg/kg | – | –
CCC1(OC(=O)COc2ccc(Cl)cc2)C(=O)OCc2c1cc1n(c2=O)Cc2cc3ccccc3nc2-1 (stereo not drawn) [Example 000517, Camptothecin-20-Oester of 4-chlorophenoxyacetic acid] | 0% | 0% | – | <150 mg/kg | 100%
CCC1(OC(=O)COc2ccc(C)cc2)C(=O)OCc2c1cc1n(c2=O)Cc2cc3ccccc3nc2-1 (stereo not drawn) [Example 000518, Camptothecin-20-O-ester of 4-methylphenoxyacetic acid] | 0% | 0% | <150 mg/kg | – | 97.31%
CCC1(OC(=O)COc2ccc3c(c2)CC[C@@H]2[C@@H]3CC[C@]3(C)C(=O)CC[C@@H]23)C(=O)OCc2c1cc1n(c2=O)Cc2cc3ccccc3nc2-1 (stereo partly drawn) [Example 000531, Camptothecin-20-O-ester of estra-1,3,5(10)-trien-17-one-3-oxyacetic acid] | 0% | 0% | – | >150 mg/kg | 81.45%
CCC1(OC(=O)COc2c(Cl)cc(F)cc2Cl)C(=O)OCc2c1cc1n(c2=O)Cc2cc3ccccc3nc2-1 (stereo not drawn) [Example 000602, Camptothecin-20-O-ester of 2,6-dichloro-4-fluorophenoxyacetic acid] | 0% | 0% | >150 mg/kg | – | 74.00%
CCC1(OC(=O)COc2ccc([N+](=O)[O-])c(C(F)(F)F)c2)C(=O)OCc2c1cc1n(c2=O)Cc2cc3ccccc3nc2-1 (stereo not drawn) [Example 000605, Camptothecin-20-O-ester of 4-nitro-3-trifuoromethylphenoxyacetic acid] | 0% | 0% | >150 mg/kg | – | 88.00%
CC[C@@]1(OC(=O)COc2ccc(C)nc2I)C(=O)OCc2c1cc1n(c2=O)Cc2cc3ccccc3nc2-1 [Example 000616, Camptotheci-20-O-ester of 6-iodo-2-methylpyridine-5-oxyacetic acid] | 0% | 0% | >150 mg/kg | – | 84.85%
CC[C@@]1(OC(=O)COc2nc3ccccc3s2)C(=O)OCc2c1cc1n(c2=O)Cc2cc3ccccc3nc2-1 [Example 000727, Camptothecin-20-O-ester of benzothiazole-2-oxyacetic acid] | 0% | 0% | – | – | 96.81%
CCC1(OC(=O)COc2ccc(C#N)c(F)c2)C(=O)OCc2c1cc1n(c2=O)Cc2cc3ccccc3nc2-1 (stereo not drawn) [Example 001030, Camptothecin-20-O-ester of 4-cyano-3-fluorophenoxyacetic acid] | 0% | – | – | – | 86.90%
